Like-named read-outs stand apart in the source and are kept apart here.
Assays:
Type in all cases: cell-based
E. coli ATCC 25922 = assay: In vitro antibacterial activity assay (MIC, broth dilution); settings: Escherichia coli, ATCC25922
Excerpt: (§1) The method used to indicate the activity of the compounds in this example is to record the minimum inhibitory concentration (MIC) of the compounds against bacteria. The specific experimental method is as follows:
(§2) 1. The bacterial liquid cultured from a single colony was taken, and diluted into autoclaved CAMHB broth in a ratio of 1:1000, and mixed well.
(§3) 2. The prepared drug solution was filtered through a sterile 0.22 µm syringe filter and placed in a sterile EP tube for later use.
(§4) 3. A 96-well plate was taken, and 20 µL of drug solution ([…]) was added to each well in the first column of the 96-well plate. Then, 180 µL of diluted bacterial liquid was added and mixed well (Perform 3 replicate rows for each drug).
(§5) The same process was performed for the hydrochloride drug.
(§6) 4. 100 μL of diluted bacterial liquid was added to each well in the remaining 11 columns of the 96-well plate. Drugs are the same as above.
(§7) 5. Serial dilution: 100 μL of liquid was taken from the first column to the second column, mixed well, then 100 μL of liquid was taken from the second column to the third column, mixed well, and so on, sequentially diluting down to the last column (column 12). After mixing column 12 well, 100 μL of liquid thereof was discarded. The drug concentration in each well was decreased by two-fold serially (the concentration in the first well is 40 μg/mL).
(§8) 6. Blank CAMHB broth without added bacteria liquid was added to 3 blank wells in the 96-well plate, as negative control.
(§9) 7. The diluted bacterial liquid was added to 3 blank wells in the 96-well plate, as positive control.
(§10) 8. Incubated at 37° C. for 16 hours.
(§11) 9. Results reading: the minimum inhibitory concentration is the minimum drug concentration at which no bacterial growth is visible to the naked eye and without turbidity.

S. aureus ATCC 43300 = assay: as above; settings: Staphylococcus aureus, ATCC43300
Excerpt: as §1, §2, §3, §4, §5, §6, §7, §8, §9, §10, §11

Hela = assay: In vitro anticancer activity test (MTT cell proliferation); settings: Homo sapiens, average proliferation inhibition rate at the dosage of 40 μM, read-out: Hela Average inhibition rate %
Procedure: The anticancer activity of the compounds was tested using an in vitro cancer cell tests. The specific test method is as follows:
1. Cell recovery and culture method: the cryovial was taken out from the liquid nitrogen container firstly, soaked directly in 37° C. warm water, and shaked from time to time to let it thaw as soon as possible. Then, the cryovial was transferred to a clean bench, and the lid was open. The cell suspension was taken into a centrifuge tube using a rubber-tipped dropper and more than 10 times the culture medium was added, mixed well, and centrifuged at 50 g for 5 minutes. Then, the supernatant was discarded, complete culture medium containing 10% fetal bovine serum was added to resuspend the cells, the cells was counted, the cell density was adjusted, and then inoculated into a culture bottle. The culture bottle was placed in a cell culture incubator at 5% CO2 and 37° C. The complete culture medium was replaced once the next day and the culture was continued.
2. Cell passaging method: adherent cells in the logarithmic growth phase were placed in a clean bench, the original culture medium was discarded, and washed three times with 1×PBS. An appropriate amount of 0.25% trypsin digestion solution was added to moisten the cells, and then the trypsin solution was aspirated. The cells were placed in a cell culture incubator at 5% CO2 and 37° C. for digestion for a suitable time, and observed under a microscope. When 90% of the cells become round, the cells were moved immediately to the clean bench and complete culture medium was added to terminate digestion. Then, the cells were dislodged by pipetting up and down with a rubber-tipped dropper to single cells. The cells were counted, and the cell density was adjusted. The cells were inoculated into a suitable culture bottle or dish, added enough complete culture medium, and placed in a cell culture incubator at 5% CO2 and 37° C. for static culture.
For suspension cells in the logarithmic phase, the original culture medium was directly centrifuged at 50 g for 5 minutes, the supernatant was discarded, and the cells were washed once with PBS and centrifuged. After discarding the supernatant, the complete culture medium was added and the cells were dispersed using a rubber-tipped dropper. The cells are counted, and the cell density was adjusted. The cells were inoculated into appropriate culture bottles or culture dishes, and sufficient complete culture medium was added, and the cells were cultured in a cell culture incubator at 5% CO2 and 37° C.
3. Cell proliferation assay: cells in good state in logarithmic phase were taken and appropriate amount of the cells was inoculated into 96-well plates according to the cell passage treatment method, with each well containing 180 μL complete medium. After the cells growth was recovered and the number of cells in each well is 5000±500, a drug was added for treatment.
After drug treatment during the experimental time, MTT solution with a final concentration of 0.5 mg/mL was added to each well, and placed in a cell culture incubator at 5% CO2 and 37° C. to allow a fully reaction of MTT with cells. After 4 hours, the solution in the 96-well plate was discarded, 100 µL of DMSO was added, and shaked to dissolve the formazan precipitated at the bottom of the plate, and the absorbance value of samples was detected at a wavelength of 570 nm using a microplate reader. Calculation method of cell viability rate:
Table 4 lists some compounds that have inhibitory effects against both of bacteria and cancer cells. In the table, the inhibitory effects against cancer cells are shown: the average proliferation inhibition rate (%) against cancer cells at the dosage of 40 μM.

MIC (E. coli ATCC 25922; Table 3, read-out: MIC E. coli ATCC 25922): ≤ 0.1 µg/mL
MIC (E. coli ATCC 25922; Table 4, read-out: E. coli ATCC 25922 MIC): ≤ 1 µg/mL
MIC (S. aureus ATCC 43300; Table 3, read-out: MIC S. aureus ATCC 43300): ≤ 0.1 µg/mL
MIC (S. aureus ATCC 43300; Table 4, read-out: S. aureus ATCC 43300 MIC): ≤ 1 µg/mL
Structure (SMILES): O=C(CCl)Nc1ncc(-c2cc3c(cc2F)c(=O)c(C(=O)O)cn3C2CC2)cc1F [Example 135]
inhibition at 40 µM (Hela): ≥ 50%

— patent publication US20260224555A1, “NEW PHENYLQUINOLONE COMPOUND HAVING ANTIBACTERIAL AND ANTI-CANCER FUNCTIONS AND PREPARATION THEREOF” (AlphaMol Science Ltd (Shanghai), priority 2022, published 2026)
